The values that follow come from publication PMC11079024, “Identification of a family of species-selective complex I inhibitors as potential anthelmintics” (Nature Communications, 2024).

Assay [1] deals with adult H. polygyrus. Format: cell-based, Heligmosomoides polygyrus. As to conditions: aerobic; for effect on adult H. polygyrus viability: 10 µM, 24-h exposure; for Percent Worms Affected: affected = score equal to or lower than 1.5; for Worm viability score of individual worm, scale from 0 (dead) to 3 (motile): single worms. The method, then: After either 24- or 72 h chemical treatment, worm viability was manually scored by an examiner using a scale from 0 (dead) to 3 (motile); DMSO was used as a negative control in both 24- and 72 h treatments. The percentage of affected worms (i.e., worms with a score equal to or lower than 1.5) in each biological replicate is shown; data are from two biological replicates. Within each boxplot, black horizontal lines denote group medians, boxes span from the 25th to the 75th percentile of each group’s distribution, and whiskers extend to the maximum and minimum values.
The eleven benzimidazole derivatives were tested at a concentration of 10 µM under aerobic conditions against L3 and adult H. polygyrus.
For the larval assay, mice feces were collected 2 weeks post-infection and eggs were isolated. The eggs were left on agar at room temperature in the dark for eight to 10 days to allow them to develop into L3. Next, 30–40 L3 were incubated (37 °C, 5% CO2) in the culture medium (RPMI 1640 medium + 1% pen./strep. + 5% amphotericin B) containing the derivatives in 96-well plate (Corning, USA) reaching a final volume of 250 µL for 24 h. For the adult drug screening assay, female NMRI mice were euthanized with CO2 and adult H. polygyrus were dissected out of the intestines. Subsequently, three worms were exposed to the culture medium (RPMI 1640 medium + 1% pen./strep. + 5% amphotericin B) with the derivatives (2 mL) in a 24-well plate (Corning, USA) for either 24 or 72 h. DMSO ( < 1%) served as a negative control in both assays. All conditions were tested in duplicates. Finally, 80 µL of hot water ( ~ 80 °C) for L3 and 500 µL of hot water (~80 °C) for adults were added to the wells to check for their viability under a microscope (Carl Zeiss, Germany). Larvae were categorized as being either alive or dead, depending on whether they moved or not. […] The whole experiment was performed two times i.e., two independent biological replicates for both life stages (L3s and adults) and exposure times (24 and 72 h).

Assay [2] relates to C. elegans complex III (decylubiquinol-cytochrome C reductase). The experiment in a line: In vitro complex III activity assay, C. elegans mitochondria. Format: biochemical, Caenorhabditis elegans. The note with it: for % Activity Complex III: 100 µM compound, relative to solvent control, mean (SEM); for Percent in vitro activity, Complex III (single replicate Rep1-Rep4) / Percent in vitro activity, Complex III (Mean): 100 μM of NPD compound, C. elegans mitochondria; for Percent in vitro activity, Complex III (single replicate Rep1-Rep4): individual biological replicates; for Percent in vitro activity, Complex III (Mean): mean of four biological replicates. Put shortly:
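Mitochondria were isolated from adult C. elegans by bead-beating and differential centrifugation, then used at 0.2 mg/mL protein. Antimycin A-sensitive complex III activity was followed as decylubiquinol-driven cytochrome C reduction at 550 nm every 30 s for 15 min. Initial linear slopes were expressed as percent of solvent control.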

Assay [3] deals with C. elegans complex IV (cytochrome C oxidase). The experiment in a line: In vitro complex IV activity assay, C. elegans mitochondria. Format: biochemical, Caenorhabditis elegans. As to conditions: for % Activity Complex IV: 100 µM compound, relative to solvent control, mean (SEM); for Percent in vitro activity, Complex IV (single replicate Rep1-Rep4) / Percent in vitro activity, Complex IV (Mean): 100 μM of NPD compound, C. elegans mitochondria; for Percent in vitro activity, Complex IV (single replicate Rep1-Rep4): individual biological replicates; for Percent in vitro activity, Complex IV (Mean): mean of four biological replicates. Put shortly:
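Mitochondria from liquid-cultured adult C. elegans (N2, CB3474, ECA882, ECA917, ECA1075, ECA1080), isolated by differential centrifugation and used at 0.2 mg/mL protein. Oxidation of DTT-reduced cytochrome C followed at 550 nm every 30 s for 15 min. Activity from the initial linear slope, expressed as percent of solvent controls.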

Setting [4] is: adult H. polygyrus, replicate 1, 24 hours after treatment.
Setting [5] is: adult H. polygyrus, replicate 2, 24 hours after treatment.
[6] abbreviates: adult H. polygyrus, in vitro, 24 hours, per biological replicate.
Where [7] appears, read: adult H. polygyrus, in vitro, 24 hours.
Where [8] appears, read: adult H. polygyrus, in vitro, 72 hours, per biological replicate.
The mark [9] stands for this setting: replicate 1, 24 hours after treatment, worms with score equal to or lower than 1.5.
Where [10] appears, read: replicate 2, 24 hours after treatment, worms with score equal to or lower than 1.5.
Setting [11] is: adult H. polygyrus, in vitro, 72 hours.

Several values for one entry are separate records, joined by “and”; a condition that tells them apart may be missing. Equal values may be shown once. Read-outs that look alike come from different tables or passages of the source.

`CCn1c(C(C)c2ccc(CC(C)C)cc2)nc2ccccc21` (stereo not drawn) [STK951902]: the “effect on adult H. polygyrus viability” value in assay [1] is reported as “potent effects”. Moreover, the figures for the “Percent Worms Affected” value in assay [1] (setting [4]) and in assay [1] (setting [5]) were 67% and 83%, respectively. The “Percent Worms Affected (worms with a score equal to or lower than 1.5)” value in assay [1] (setting [6]) is 67% and 83%; in assay [1] (setting [8]), 100% and 67%. In assay [1] (setting [7]), the “Worm viability score of individual worm, scale from 0 (dead) to 3 (motile)” value (“Worm viability score of individual worm” below) is 2 and 1 and 1.5. Also, the “# of Worms Affected” value in assay [1] (setting [9]) is given as 4; in assay [1] (setting [10]) it was 5.

`Clc1ccccc1OCCCCn1cnc2ccccc21` [Compound 7925804]: the “effect on adult H. polygyrus viability” value in assay [1] is listed as “potent effects”. In addition, the “Percent Worms Affected (worms with a score equal to or lower than 1.5)” value in assay [1] (setting [6]) is 60% and 67%; in assay [1] (setting [8]), 100% and 83%. In addition, the “Worm viability score of individual worm” value in assay [1] (setting [7]) was 1.5 and 2; in assay [1] (setting [11]) it was 1.5. The “# of Worms Affected” value is recorded as 5 in assay [1] (setting [8]), 2 in assay [1] (setting [9]) and 4 in assay [1] (setting [10]).

As for `Clc1ccc(SCCCCn2cnc3ccccc32)cc1` [Compound 7925515], the “effect on adult H. polygyrus viability” value in assay [1] is reported as “potent effects”. The “Percent Worms Affected” value came to 100% in assay [1] (setting [4]) and 50% in assay [1] (setting [5]). Moreover, the “Percent Worms Affected (worms with a score equal to or lower than 1.5)” value in assay [1] (setting [6]) was 50% and 100%; in assay [1] (setting [8]), 100%. In assay [1] (setting [7]), the “Worm viability score of individual worm” value was 1.5. In addition, the “# of Worms Affected” value in assay [1] (setting [9]) was found to be 6; in assay [1] (setting [10]) it was 4.

Turning to `Clc1ccc(Cn2cnc3ccccc32)c(Cl)c1` [Compound 6750659], the entries for the “Percent Worms Affected” value in assay [1] (setting [4]) and in assay [1] (setting [5]) were 33% and 17%, respectively. Besides, the “Percent Worms Affected (worms with a score equal to or lower than 1.5)” value in assay [1] (setting [6]) is 33% and 17%; in assay [1] (setting [8]) it was 33% and 100%. The “Worm viability score of individual worm” value in assay [1] (setting [7]) was 1.5 and 2.5; in assay [1] (setting [11]), 1.5. The “# of Worms Affected” value in assay [1] (setting [9]) stood at 2; in assay [1] (setting [10]) it was 1.

As for `CC(C)Cc1ccc(C(C)c2nc3ccccc3n2C(C)C)cc1` (stereo not drawn) [STK951903], the “Percent Worms Affected” value in assay [1] (setting [4]) was determined as 67%; in assay [1] (setting [5]) it was 14%. Further, the “Percent Worms Affected (worms with a score equal to or lower than 1.5)” value in assay [1] (setting [6]) was 67% and 14%; in assay [1] (setting [8]) it was 100%. Besides, in assay [1] (setting [7]), the “Worm viability score of individual worm” value is 1.5 and 2.5 and 2. The “# of Worms Affected” value in assay [1] (setting [8]) came to 6; in assay [1] (setting [9]), 4; in assay [1] (setting [10]), 1.

`COc1cc2c(cc1OC)C(c1ccc(-c3ccc(Cl)c(Cl)c3)o1)=NCC2` [NPD3577]: in assay [2], the “% Activity Complex III” value is listed as 65.54 (2.59) %; the “Percent in vitro activity, Complex III (single replicate Rep1-Rep4)” value was 80.555% and 63.410% and 61.250% and 56.942%; the “Percent in vitro activity, Complex III (Mean)” value (“Percent … Complex III (Mean)” for short) worked out at 65.539%. Also, in assay [3], the “% Activity Complex IV” value was 81.06 (2.34) %; the “Percent in vitro activity, Complex IV (single replicate Rep1-Rep4)” value was 78.287% and 81.122% and 71.227% and 93.621%; the “Percent in vitro activity, Complex IV (Mean)” value (shortened to “Percent … Complex IV (Mean)”) is 81.064%.

As to `COc1cc2c(cc1OC)C(C(C)c1ccc(CC(C)C)cc1)=NCC2` (stereo not drawn) [NPD10504], in assay [2], the “% Activity Complex III” value is 79.51 (1.51) %; the “Percent in vitro activity, Complex III (single replicate Rep1-Rep4)” value is 86.667% and 75.479% and 82.250% and 73.635%; the “Percent … Complex III (Mean)” value was 79.508%. In assay [3], the “% Activity Complex IV” value is reported as 74.57 (1.35) %; the “Percent in vitro activity, Complex IV (single replicate Rep1-Rep4)” value is 71.688% and 71.402% and 72.596% and 82.587%; the “Percent … Complex IV (Mean)” value was found to be 74.568%.

As to `COc1cc2c(cc1OC)C(/C=C/c1ccc(N(C)C)cc1)=NCC2` [NPD6303], in assay [2], the “% Activity Complex III” value is 78.10 (1.39) %; the “Percent in vitro activity, Complex III (single replicate Rep1-Rep4)” value is 81.950% and 83.314% and 71.366% and 75.773%; the “Percent … Complex III (Mean)” value is listed as 78.101%. Moreover, in assay [3], the “% Activity Complex IV” value was 83.07 (1.76) %; the “Percent in vitro activity, Complex IV (single replicate Rep1-Rep4)” value is 86.689% and 90.588% and 80.321% and 74.685%; the “Percent … Complex IV (Mean)” value was found to be 83.071%.

Turning to `Cc1ccccc1OCCCCn1cnc2ccccc21` [Compound 7732524], in assay [1], the “effect on adult H. polygyrus viability” value is “potent effects”. Besides, the figures for the “Percent Worms Affected” value in assay [1] (setting [4]) and in assay [1] (setting [5]) were 100% and 67%, respectively. Further, the “# of Worms Affected” value in assay [1] (setting [6]) is 4 and 6; in assay [1] (setting [9]), 6; in assay [1] (setting [10]) it was 4. In addition, the “Percent Worms Affected (worms with a score equal to or lower than 1.5)” value is 67% in assay [1] (setting [6]); 83% and 100% in assay [1] (setting [8]). Besides, the “Worm viability score of individual worm” value was 1.25 (4×) and 1 in assay [1] (setting [7]); 0.5 in assay [1] (setting [11]).

Regarding `Brc1ccc(Cn2cnc3ccccc32)cc1` [Compound 5542661], the “Percent Worms Affected (worms with a score equal to or lower than 1.5)” value in assay [1] (setting [6]) is 17% and 0%; in assay [1] (setting [8]), 17% and 83%. In addition, the “Worm viability score of individual worm” value in assay [1] (setting [7]) was 2.5 and 2; in assay [1] (setting [11]), 1.5.

`Cc1nc2ccccc2n1Cc1ccc(Cl)cc1` [STK697993]: the “Percent Worms Affected” value in assay [1] (setting [4]) and in assay [1] (setting [5]) was 17% in each case. Moreover, the “# of Worms Affected” value in assay [1] (setting [6]), in assay [1] (setting [9]) and in assay [1] (setting [10]) was 1 each time. Also, the “Percent Worms Affected (worms with a score equal to or lower than 1.5)” value in assay [1] (setting [6]) is 17%; in assay [1] (setting [8]) it was 17% and 100%. Also, in assay [1] (setting [7]), the “Worm viability score of individual worm” value was 2.5 and 1.5.

With `Cc1nc2ccccc2n1Cc1ccc(Br)cc1` [Compound 5567167], the entries for the “Percent Worms Affected” value in assay [1] (setting [4]) and in assay [1] (setting [5]) were 33% and 17%, respectively. Besides, the “Percent Worms Affected (worms with a score equal to or lower than 1.5)” value is 33% and 17% in assay [1] (setting [6]); 83% and 100% in assay [1] (setting [8]). Besides, the “Worm viability score of individual worm” value in assay [1] (setting [7]) is 2.5 and 2 and 1.5; in assay [1] (setting [11]) it was 1.5. The figures for the “# of Worms Affected” value in assay [1] (setting [9]) and in assay [1] (setting [10]) were 2 and 1, respectively.

For `Cc1nc2ccccc2n1Cc1ccccc1Cl` [Compound 6707368], the “Percent Worms Affected” value in assay [1] (setting [4]) is reported as 0%; in assay [1] (setting [5]), 14%. In addition, the “Percent Worms Affected (worms with a score equal to or lower than 1.5)” value in assay [1] (setting [6]) is 0% and 14%; in assay [1] (setting [8]) it was 29% and 100%. For the same compound, the results for the “Worm viability score of individual worm” value in assay [1] (setting [7]) and in assay [1] (setting [11]) were 2.5 and 1.5, respectively. Also, the “# of Worms Affected” value worked out at 0 in assay [1] (setting [9]) and 1 in assay [1] (setting [10]).
